One block for each compound: values may come before it.
Legend:
Format in all cases: in vivo
[1] = system: Abutilon theophrasti (ABUTH); experiment: Post-emergence herbicidal action, greenhouse pot test; conditions: rated visually after about 3 weeks vs untreated controls, 100% = plants have died
How it was run: (§1)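 Activity was scored by eye about 3 weeks after treatment against untreated plants, where 100% means dead plants and 0% means no difference. Plants at the one-leaf stage received a foliar spray of WP or EC formulations in water plus 0.5% additive (600 l/ha, up to 20 g/ha). Plants were grown in sandy loam pots in a greenhouse for 2–3 weeks before spraying.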

[2] = system: Amaranthus retroflexus (AMARE); experiment: as above; conditions: rated visually after about 3 weeks vs untreated controls, 100% = plants have died
How it was run: as §1

[3] = system: Avena fatua (AVEFA); experiment: as above; conditions: 20 g/ha, rated visually after about 3 weeks vs untreated controls, 100% = plants have died
How it was run: as §1

[4] = system: Pharbitis purpurea (PHBPU); experiment: as above
How it was run: as §1

[5] = system: Polygonum convolvulus (POLCO); experiment: as above; conditions: dosage 20 g/ha
How it was run: as §1

[6] = system: Veronica persica (VERPE); experiment: as above
How it was run: as §1

[7] = system: Viola tricolor (VIOTR); experiment: as above
How it was run: as §1

[8] = system: Alopecurus myosuroides (ALOMY); experiment: Post-emergence herbicidal action, greenhouse pot test (also comparative test C); conditions: rated visually after about 3 weeks vs untreated controls, 100% = plants have died
How it was run: (§2)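 Green parts of one-leaf-stage plants are sprayed at 600 l/ha with formulated compound plus 0.5% additive, then kept under optimum greenhouse conditions for about 3 weeks. Damage is scored visually, where 100% means dead plants and 0% means no difference from controls.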

[9] = system: Echinochloa crus-galli (ECHCG); experiment: as above
How it was run: as §2

[10] = system: Matricaria inodora (MATIN); experiment: as above
How it was run: as §2

[11] = system: Setaria viridis (SETVI); experiment: as above
How it was run: as §2

[12] = system: Triticum aestivum (TRZAS); experiment: Post-emergence crop plant compatibility, greenhouse pot test; conditions: vs untreated controls
How it was run: (§3)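 Greenhouse pot test; post-emergence foliar spray at one-leaf stage, WP or EC in water + 0.5% additive, 600 l/ha. Visual rating after ~3 wk, % relative to untreated (0–100%).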

[13] = system: Zea mays (ZEAMX); experiment: as above; conditions: 1.25 g/ha, vs untreated controls
How it was run: as §3

[14] = system: Oryza sativa (ORYSA); experiment: Post-emergence crop plant compatibility, greenhouse pot test (also comparative test C); conditions: for Post-emergence action against ORYSA (crop plant compatibility): vs untreated controls
How it was run: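 Visual damage versus untreated plants (0% = like control, 100% = plants died) was scored about 3 weeks after a post-emergence spray in greenhouse pots. Treatment: one-leaf stage, WP or EC in water at 600 l/ha with 0.5% additive; a/b/c mark different dosages on the same crop.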

Post-emergence action against TRZAS (crop plant compatibility) ([12]; 1.25 g/ha): 10%
Post-emergence action against TRZAS (crop plant compatibility) ([12]; 5 g/ha): 20%
Post-emergence action against TRZAS (crop plant compatibility) ([12]; 20 g/ha): 20%
Post-emergence action against ZEAMX (crop plant compatibility) [13]: 20%
Post-emergence action against ORYSA (crop plant compatibility) ([14]; 1.25 g/ha): 10%
Post-emergence action against ORYSA (crop plant compatibility) ([14]; 5 g/ha): 10%
Post-emergence action against ORYSA in % ([14]; 20 g/ha, crop plant compatibility): 20%
Structure (SMILES): Cn1c(C(F)(F)F)cc(=O)n(-c2cc(Oc3ccccc3OCC(=O)OCCOC(F)(F)F)c([N+](=O)[O-])cc2F)c1=O [I.6-41]
Post-emergence action at 1.25 g/ha against ABUTH in % ([1]; 1.25 g/ha): 100%
Post-emergence action at 5 g/ha against ABUTH in % ([1]; 5 g/ha): 100%
Post-emergence action at 20 g/ha against ABUTH in % ([1]; 20 g/ha): 100%
Post-emergence action at 1.25 g/ha against AMARE in % ([2]; 1.25 g/ha): 100%
Post-emergence action at 5 g/ha against AMARE in % ([2]; 5 g/ha): 100%
Post-emergence action at 20 g/ha against AMARE in % ([2]; 20 g/ha): 100%
Post-emergence action at 20 g/ha against AVEFA in % [3]: 80%
Post-emergence action against PHBPU in % ([4]; dosage 1.25 g/ha): 100%
Post-emergence action against PHBPU in % ([4]; dosage 5 g/ha): 100%
Post-emergence action against PHBPU in % ([4]; dosage 20 g/ha): 100%
Post-emergence action against POLCO in % [5]: 100%
Post-emergence action against VERPE ([6]; 5 g/ha): 100%
Post-emergence action against VERPE ([6]; 20 g/ha): 100%
Post-emergence action against VIOTR ([7]; 1.25 g/ha): 100%
Post-emergence action against VIOTR ([7]; 5 g/ha): 100%
Post-emergence action against VIOTR ([7]; 20 g/ha): 100%
Post-emergence action at 5 g/ha against ALOMY in % ([8]; 5 g/ha): 80%
Post-emergence action at 20 g/ha against ALOMY in % ([8]; 20 g/ha): 100%
Post-emergence action against ECHCG in % ([9]; dosage 5 g/ha): 100%
Post-emergence action against ECHCG in % ([9]; dosage 20 g/ha): 100%
Post-emergence action against MATIN in % ([10]; dosage 5 g/ha): 80%
Post-emergence action against MATIN in % ([10]; dosage 20 g/ha): 100%
Post-emergence action against SETVI ([11]; 20 g/ha): 100%
Post-emergence action against SETVI in % ([11]; dosage 1.25 g/ha): 100%
Post-emergence action against SETVI in % ([11]; dosage 5 g/ha): 100%

Post-emergence action against TRZAS (crop plant compatibility) ([12]; 1.25 g/ha): 20%
Post-emergence action against ZEAMX (crop plant compatibility) [13]: 10%
Post-emergence action against ORYSA (crop plant compatibility) ([14]; 1.25 g/ha): 0%
Post-emergence action against ORYSA (crop plant compatibility) ([14]; 5 g/ha): 20%
Structure (SMILES): COCC(C)OC(=O)COc1ccccc1Oc1cc(-n2c(=O)cc(C(F)(F)F)n(C)c2=O)c(F)cc1Cl (centres unmarked) [I.7-94, 1-Methoxypropan-2-yl (2-{2-chloro-4-fluoro-5-[3-methyl-2,6-dioxo-4-(trifluoromethyl)-3,6-dihydropyrimidin-1(2H)-yl]phenoxy}phenoxy)acetate]
pest or weed control at 1.25 g/ha ([1]; Abutilon theophrasti, 504 h, 1.25 g/ha, read-out: Post-emergence action at 1.25 g/ha against ABUTH in %): 100%
pest or weed control at 5 g/ha ([1]; Abutilon theophrasti, 504 h, 5 g/ha, read-out: Post-emergence action at 5 g/ha against ABUTH in %): 100%
pest or weed control at 20 g/ha ([1]; Abutilon theophrasti, 504 h, 20 g/ha, read-out: Post-emergence action at 20 g/ha against ABUTH in %): 100%
pest or weed control at 1.25 g/ha ([2]; Amaranthus retroflexus, 504 h, 1.25 g/ha, read-out: Post-emergence action at 1.25 g/ha against AMARE in %): 100%
pest or weed control at 5 g/ha ([2]; Amaranthus retroflexus, 504 h, 5 g/ha, read-out: Post-emergence action at 5 g/ha against AMARE in %): 100%
pest or weed control at 20 g/ha ([2]; Amaranthus retroflexus, 504 h, 20 g/ha, read-out: Post-emergence action at 20 g/ha against AMARE in %): 100%
pest or weed control at 20 g/ha ([3]; Avena fatua, 504 h, read-out: Post-emergence action at 20 g/ha against AVEFA in %): 80%
pest or weed control at 1.25 g/ha ([4]; Ipomoea purpurea, 504 h, dosage 1.25 g/ha, read-out: Post-emergence action against PHBPU in %): 100%
pest or weed control at 5 g/ha ([4]; Ipomoea purpurea, 504 h, dosage 5 g/ha, read-out: Post-emergence action against PHBPU in %): 100%
pest or weed control at 20 g/ha ([4]; Ipomoea purpurea, 504 h, dosage 20 g/ha, read-out: Post-emergence action against PHBPU in %): 100%
pest or weed control at 20 g/ha ([5]; Fallopia convolvulus, 504 h, read-out: Post-emergence action against POLCO in %): 100%
pest or weed control at 1.25 g/ha ([6]; Veronica persica, 504 h, 1.25 g/ha, read-out: Post-emergence action against VERPE): 100%
pest or weed control at 5 g/ha ([6]; Veronica persica, 504 h, 5 g/ha, read-out: Post-emergence action against VERPE): 100%
pest or weed control at 20 g/ha ([6]; Veronica persica, 504 h, 20 g/ha, read-out: Post-emergence action against VERPE): 100%
pest or weed control at 1.25 g/ha ([7]; Viola tricolor, 504 h, 1.25 g/ha, read-out: Post-emergence action against VIOTR): 80%
pest or weed control at 5 g/ha ([7]; Viola tricolor, 504 h, 5 g/ha, read-out: Post-emergence action against VIOTR): 100%
pest or weed control at 20 g/ha ([7]; Viola tricolor, 504 h, 20 g/ha, read-out: Post-emergence action against VIOTR): 100%
pest or weed control at 5 g/ha ([8]; Alopecurus myosuroides, 504 h, 5 g/ha, read-out: Post-emergence action at 5 g/ha against ALOMY in %): 80%
pest or weed control at 20 g/ha ([8]; Alopecurus myosuroides, 504 h, 20 g/ha, read-out: Post-emergence action at 20 g/ha against ALOMY in %): 80%
pest or weed control at 5 g/ha ([9]; Echinochloa crus-galli, 504 h, dosage 5 g/ha, read-out: Post-emergence action against ECHCG in %): 100%
pest or weed control at 20 g/ha ([9]; Echinochloa crus-galli, 504 h, dosage 20 g/ha, read-out: Post-emergence action against ECHCG in %): 100%
pest or weed control at 1.25 g/ha ([10]; Tripleurospermum inodorum, 504 h, dosage 1.25 g/ha, read-out: Post-emergence action against MATIN in %): 80%
pest or weed control at 5 g/ha ([10]; Tripleurospermum inodorum, 504 h, dosage 5 g/ha, read-out: Post-emergence action against MATIN in %): 80%
pest or weed control at 20 g/ha ([10]; Tripleurospermum inodorum, 504 h, dosage 20 g/ha, read-out: Post-emergence action against MATIN in %): 100%
pest or weed control at 20 g/ha ([11]; Setaria viridis, 504 h, 20 g/ha, read-out: Post-emergence action against SETVI): 100%
pest or weed control at 1.25 g/ha ([11]; Setaria viridis, 504 h, dosage 1.25 g/ha, read-out: Post-emergence action against SETVI in %): 100%
pest or weed control at 5 g/ha ([11]; Setaria viridis, 504 h, dosage 5 g/ha, read-out: Post-emergence action against SETVI in %): 100%

Post-emergence action against TRZAS (crop plant compatibility) ([12]; 1.25 g/ha): 0%
Post-emergence action against TRZAS (crop plant compatibility) ([12]; 5 g/ha): 0%
Post-emergence action against ZEAMX (crop plant compatibility) [13]: 10%
Post-emergence action against ORYSA (crop plant compatibility) ([14]; 1.25 g/ha): 20%
Structure (SMILES): Cn1c(C(F)(F)F)cc(=O)n(-c2cc(Oc3ccccc3OCC(=O)OCc3cccnn3)c(Cl)cc2F)c1=O [I.7-291]
Post-emergence action at 1.25 g/ha against ABUTH in % ([1]; 1.25 g/ha): 100%
Post-emergence action at 5 g/ha against ABUTH in % ([1]; 5 g/ha): 100%
Post-emergence action at 20 g/ha against ABUTH in % ([1]; 20 g/ha): 100%
Post-emergence action at 1.25 g/ha against AMARE in % ([2]; 1.25 g/ha): 100%
Post-emergence action at 5 g/ha against AMARE in % ([2]; 5 g/ha): 100%
Post-emergence action at 20 g/ha against AMARE in % ([2]; 20 g/ha): 100%
Post-emergence action at 20 g/ha against AVEFA in % [3]: 100%
Post-emergence action against PHBPU in % ([4]; dosage 1.25 g/ha): 100%
Post-emergence action against PHBPU in % ([4]; dosage 5 g/ha): 100%
Post-emergence action against PHBPU in % ([4]; dosage 20 g/ha): 100%
Post-emergence action against POLCO in % [5]: 100%
Post-emergence action against VERPE ([6]; 5 g/ha): 100%
Post-emergence action against VERPE ([6]; 20 g/ha): 100%
Post-emergence action against VIOTR ([7]; 1.25 g/ha): 100%
Post-emergence action against VIOTR ([7]; 5 g/ha): 100%
Post-emergence action against VIOTR ([7]; 20 g/ha): 100%
Post-emergence action at 5 g/ha against ALOMY in % ([8]; 5 g/ha): 80%
Post-emergence action at 20 g/ha against ALOMY in % ([8]; 20 g/ha): 100%
Post-emergence action against ECHCG in % ([9]; dosage 5 g/ha): 100%
Post-emergence action against ECHCG in % ([9]; dosage 20 g/ha): 100%
Post-emergence action against MATIN in % ([10]; dosage 5 g/ha): 100%
Post-emergence action against MATIN in % ([10]; dosage 20 g/ha): 100%
Post-emergence action against SETVI ([11]; 20 g/ha): 100%
Post-emergence action against SETVI in % ([11]; dosage 1.25 g/ha): 100%
Post-emergence action against SETVI in % ([11]; dosage 5 g/ha): 100%
